From patent publication US9120774B2 (University of Kansas, priority 2009, dated 2015)
Where two headings read alike, the source gives them in different places.

Key:
Format in all cases: cell-based
[1] = system: SkBr3 (Her2 overexpressing breast cancer cells); experiment: Anti-proliferation activity against SkBr3 cells (MTS/PMS); settings: Homo sapiens, SK-BR-3, n = 3, read-out: IC50 SkBr3
In short: (§1)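 Cells seeded at 2000/well, attached overnight, then exposed to compound at varying concentrations (1% DMSO final) for 72 hours at 37° C. Viable cells read by MTS/PMS, normalised to 1% DMSO as 100% proliferation. IC50 from separate triplicate experiments.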

[2] = system: MCF-7 (estrogen receptor positive breast cancer cells); experiment: Anti-proliferation activity against MCF-7 cells (MTS/PMS); settings: Homo sapiens, MCF7, n = 3, read-out: IC50 MCF-7
In short: as §1

[3] = system: HCT-116 (colon cancer cells characterized by wild-type p53); experiment: Anti-proliferation activity against HCT-116 cells; settings: Homo sapiens
Method: (§2) Upon completion of synthesis of library of compounds in Examples 23 and 24, the compounds were evaluated for anti-proliferative activity against SkBr3 (Her2 overexpressing breast cancer cells), MCF-7 (estrogen receptor positive breast cancer cells), HCT-116 (colon cancer cells characterized by wild-type p53), PL45 (pancreatic cancer cells), LNCaP (androgen sensitive prostate cancer cells) and PC-3 (androgen independent prostate cancer cells) cell lines. […] The monosubstituted benzamide variants improved activity.

[4] = system: PL45 (pancreatic cancer cells); experiment: Anti-proliferation activity against PL45 cells
Method: as §2

[5] = system: LNCaP (androgen sensitive prostate cancer cells); experiment: Anti-proliferation activity against LNCaP cells; settings: Homo sapiens, LNCaP, n = 3, read-out: IC50 LNCaP
Method: as §2
(§3) Cells were maintained in a 1:1 mixture of Advanced DMEM/F12 (Gibco) supplemented with non-essential amino acids, L-glutamine (2 mM), streptomycin (500 ng/mL), penicillin (100 units/mL), and 10% FBS. Cells were grown to confluence in a humidified atmosphere (37° C., 5% CO2), seeded (2000/well, 100 μl) in 96-well plates, and allowed to attach overnight. Compound or GDA at varying concentrations in DMSO (1% DMSO final concentration) was added, and cells were returned to the incubator for 72 hours. At 72 hours, the number of viable cells was determined using an MTS/PMS cell proliferation kit (Promega) per the manufacturer's instructions. Cells incubated in 1% DMSO were used at 100% proliferation, and values were adjusted accordingly. IC50 values were calculated from separate experiments performed in triplicate using GraphPad Prism.

[6] = system: PC-3 (androgen independent prostate cancer cells); experiment: Anti-proliferation activity against PC-3 cells; settings: Homo sapiens, PC-3, n = 3, read-out: IC50 PC-3
Method: as §2
as §3, with “[…] […]” for “Compound or GDA at varying concentrations in DMSO (1% DMSO final concentration) was added, and cells were returned to the incubator for 72 hours. At 72 hours, the number of viable cells was determined using an MTS/PMS cell proliferation kit (Promega) per the manufacturer's instructions.”

IC50 ([1]; Table 2)	IC50 ([2]; Table 2)	IC50 ([3]; Table 2, n = 3)	IC50 ([4]; Table 2, n = 3)	IC50 ([5]; Table 2)	IC50 ([6]; Table 2)	IC50 ([1]; Table 3)	IC50 ([2]; Table 3)	IC50 ([3]; Table 3, n = 3)	IC50 ([4]; Table 3, n = 3)	IC50 ([5]; Table 3)	IC50 ([6]; Table 3)	Compound
39.1 ± 4.1 µM	18.9 ± 7 µM	32.7 ± 1.6 µM	14.4 ± 2.4 µM	17.3 ± 5.2 µM	65.3 ± 5.6 µM	–	–	–	–	–	–	CO[C@@H]1[C@@H](O)[C@@H](O)[C@H](Oc2ccc3cc(NC(=O)c4ccccc4-c4ccccc4)c(=O)oc3c2C)OC1(C)C [compound 12, N-(7-((2R,3R,4S,5R)-3,4-Dihydroxy-5-methoxy-6,6-dimethyltetrahydro-2H-pyran-2-yloxy)-8-methyl-2-oxo-2H-chromen-3-yl)biphenyl-2-carboxamide]
> 100 µM	> 100 µM	> 100 µM	> 100 µM	69.3 ± 4.1 µM	> 100 µM	–	–	–	–	–	–	CO[C@@H]1[C@@H](O)[C@@H](O)[C@H](Oc2ccc3cc(NC(=O)c4ccc([N+](=O)[O-])cc4)c(=O)oc3c2C)OC1(C)C [compound 17, N-(7-((2R,3R,4S,5R)-3,4-Dihydroxy-5-methoxy-6,6-dimethyltetrahydro-2H-pyran-2-yloxy)-8-methyl-2-oxo-2H-chromen-3-yl)-4-nitrobenzamide]
33.1 ± 1.1 µM	14 ± 0.5 µM	24.4 ± 5.8 µM	8.4 ± 0.3 µM	26.4 ± 15.8 µM	65.2 ± 2.8 µM	–	–	–	–	–	–	CO[C@@H]1[C@@H](O)[C@@H](O)[C@H](Oc2ccc3cc(NC(=O)c4ccc(N)cc4)c(=O)oc3c2C)OC1(C)C [compound 20, 4-Amino-N-(7-((2R,3R,4S,5R)-3,4-dihydroxy-5-methoxy-6,6-dimethyltetrahydro-2H-pyran-2-yloxy)-8-methyl-2-oxo-2H-chromen-3-yl)benzamide]

Further lines, the compound ahead of its results:

Compound	IC50 ([1]; Table 2)	IC50 ([2]; Table 2)	IC50 ([3]; Table 2, n = 3)	IC50 ([4]; Table 2, n = 3)	IC50 ([5]; Table 2)	IC50 ([6]; Table 2)	IC50 ([1]; Table 3)	IC50 ([2]; Table 3)	IC50 ([3]; Table 3, n = 3)	IC50 ([4]; Table 3, n = 3)	IC50 ([5]; Table 3)	IC50 ([6]; Table 3)
CO[C@@H]1[C@@H](O)[C@@H](O)[C@H](Oc2ccc3cc(NC(=O)c4cccc(-c5ccccc5)c4)c(=O)oc3c2C)OC1(C)C [compound 13, N-(7-((2R,3R,4S,5R)-3,4-Dihydroxy-5-methoxy-6,6-dimethyltetrahydro-2H-pyran-2-yloxy)-8-methyl-2-oxo-2H-chromen-3-yl)biphenyl-3-carboxamide]	13 ± 1.4 µM	18 ± 3.8 µM	12.8 ± 2.3 µM	1.6 ± 0.2 µM	1.6 ± 0.5 µM	11.6 ± 1.4 µM	–	–	–	–	–	–
CO[C@@H]1[C@@H](O)[C@@H](O)[C@H](Oc2ccc3cc(NC(=O)c4ccc(-c5ccccc5)cc4)c(=O)oc3c2C)OC1(C)C [compound 14, N-(7-((2R,3R,4S,5R)-3,4-Dihydroxy-5-methoxy-6,6-dimethyltetrahydro-2H-pyran-2-yloxy)-8-methyl-2-oxo-2H-chromen-3-yl)biphenyl-4-carboxamide]	16.3 ± 1.6 µM	8.1 ± 6 µM	3.6 ± 2 µM	1.6 ± 0.2 µM	44.9 ± 31.6 µM	19.3 ± 5.1 µM	–	–	–	–	–	–
CO[C@@H]1[C@@H](O)[C@@H](O)[C@H](Oc2ccc3cc(NC(=O)c4ccccc4N)c(=O)oc3c2C)OC1(C)C [compound 18, 2-Amino-N-(7-((2R,3R,4S,5R)-3,4-dihydroxy-5-methoxy-6,6-dimethyltetrahydro-2H-pyran-2-yloxy)-8-methyl-2-oxo-2H-chromen-3-yl)benzamide]	17.7 ± 1.4 µM	17.2 ± 3.3 µM	14.4 ± 0.8 µM	6.2 ± 1.3 µM	12.7 ± 0.8 µM	57.9 ± 10.1 µM	–	–	–	–	–	–
CO[C@@H]1[C@@H](O)[C@@H](O)[C@H](Oc2ccc3cc(NS(=O)(=O)c4ccccc4)c(=O)oc3c2C)OC1(C)C [compound 21, N-(7-((2R,3R,4S,5R)-3,4-Dihydroxy-5-methoxy-6,6-dimethyltetrahydro-2H-pyran-2-yloxy)-8-methyl-2-oxo-2H-chromen-3-yl)benzenesulfonamide]	–	–	–	–	–	–	> 100 µM	> 100 µM	> 100 µM	> 100 µM	> 100 µM	> 100 µM
CO[C@@H]1[C@@H](O)[C@@H](O)[C@H](Oc2ccc3cc(NC(=O)Cc4ccccc4)c(=O)oc3c2C)OC1(C)C [compound 22, N-(7-((2R,3R,4S,5R)-3,4-Dihydroxy-5-methoxy-6,6-dimethyltetrahydro-2H-pyran-2-yloxy)-8-methyl-2-oxo-2H-chromen-3-yl)-2-phenylacetamide]	–	–	–	–	–	–	21.4 ± 2.2 µM	16.4 ± 0.4 µM	13.2 ± 0.6 µM	8.5 ± 1.7 µM	10.4 ± 0.2 µM	43.3 ± 13.4 µM
